# Target: T1, recombinant human cannabinoid 1 receptor (CB1) (Homo sapiens, UniProt P21554)
# T1 construct: expressed in transfected cells; membrane preparation
# Experiment: In vitro determination of antagonism to CB1-receptor, [35S]GTPγS binding assay
# Assay type: biochemical
# Conditions: compound 1 µM vs agonist WIN 55,212-2; 100 % = effect of Rimonabant (1 µM)
# Protocol: The reaction is performed in 96-well plates. […] Radioactivity is determined using a Wallac Microbeta Trilux. Each experiment is performed at least in duplicate.
# The average of basal [^35S]GTPγS binding is subtracted from all binding data.
# T1 sequence (P21554 whole entry): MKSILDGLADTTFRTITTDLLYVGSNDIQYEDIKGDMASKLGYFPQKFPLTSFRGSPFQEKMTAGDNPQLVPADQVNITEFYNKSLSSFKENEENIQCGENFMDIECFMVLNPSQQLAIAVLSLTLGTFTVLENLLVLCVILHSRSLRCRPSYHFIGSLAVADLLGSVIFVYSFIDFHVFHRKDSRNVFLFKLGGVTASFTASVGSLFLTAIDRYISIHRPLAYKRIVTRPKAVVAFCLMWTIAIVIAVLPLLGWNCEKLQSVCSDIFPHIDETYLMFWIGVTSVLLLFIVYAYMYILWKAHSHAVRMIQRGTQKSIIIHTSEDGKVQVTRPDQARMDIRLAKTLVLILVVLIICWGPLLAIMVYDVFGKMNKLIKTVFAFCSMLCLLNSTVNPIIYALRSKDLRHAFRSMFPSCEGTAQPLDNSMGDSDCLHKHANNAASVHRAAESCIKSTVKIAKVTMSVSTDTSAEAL
smiles,measurement,value
"O=C(NN1CCCCC1)C1=NN(c2ccc(Cl)cc2Cl)[C@@H](c2ccc(Cl)cc2)C1 [Example 1, (R)-N-piperidinyl-5-(4-chlorophenyl)-1-(2,4-dichlorophenyl)-4,5-dihydro-1H-pyrazole-3-carboxamide]",Antagonism,106%

# From patent EP1944296A1, “Amorphous phase of a substituted pyrazoline, its preparation and use as medicaments” (Laboratorios del Dr. Esteve S.A., priority 2007, dated 2008)
